# ± gives the standard deviation of the averaged measurements.
# How the values were obtained:
# Assay in all cases: level (log10 ratio to DMSO vehicle control); higher = higher biomarker level / cell amount than vehicle control
# [1] = compound: CN(C(=O)C(F)(F)C(F)(F)C(F)(F)F)[Si](C)(C)C [N-Methyl-N-trimethylsilylheptafluorobutyramide] (in DMSO)
# Experimental: (§1)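 BioMAP Diversity Plus panel of 12 human primary cell co-culture systems (3C, 4H, LPS, SAg, BT, BF4T, BE3C, CASM3C, HDF3CGF, KF3CT, MyoF, Mphg). Compounds were added 1 h before stimulation and left for 24 h (MyoF 48 h; BT 72 h for soluble read-outs or 6 d for IgG). Biomarkers were read by ELISA, cytotoxicity by SRB, PBMC viability and proliferation by Alamar Blue. Each well value was divided by the mean of 8 DMSO control wells on the same plate and log10 transformed; duplicate blinded samples were tested at 4 concentrations.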
# [2] = compound: O=C(O)C=C(C(F)(F)F)C(F)(F)F [3,3-Bis(trifluoromethyl)-2-propenoic acid] (in DMSO)
# Experimental: as §1
# [3] = compound: O=C(O)C(F)(OC(F)(F)C(F)(F)C(F)(F)F)C(F)(F)F [Ammonium perfluoro-2-methyl-3-oxahexanoate] (in Water)
# Experimental: as §1
# [4] = compound: O=C(O)C(F)(F)C(F)(F)C(F)(F)OC(F)(F)F [Perfluoro(4-methoxybutanoic) acid] (in DMSO)
# Experimental: as §1
# [5] = compound: OCC(F)(F)C(F)(F)C(F)(F)C(F)(F)C(F)(F)C(F)(F)CO [1H,1H,8H,8H-Perfluorooctane-1,8-diol] (in DMSO)
# Experimental: as §1
# [6] = compound: O=S(=O)(O)CCC(F)(F)C(F)(F)C(F)(F)C(F)(F)C(F)(F)C(F)(F)C(F)(F)C(F)(F)F [8:2 Fluorotelomer sulfonic acid] (in DMSO)
# Experimental: as §1
# [7] = compound: CO[Si](C)(CCC(F)(F)C(F)(F)C(F)(F)C(F)(F)C(F)(F)C(F)(F)F)OC [Dimethoxymethyl((perfluorohexyl)ethyl)silane] (in DMSO)
# Experimental: as §1
Test System,level (log10) ([1]; 6700 nM),level (log10) ([1]; 20000 nM),level (log10) ([1]; 60000 nM),level (log10) ([2]; 6700 nM),level (log10) ([2]; 20000 nM),level (log10) ([2]; 60000 nM),level (log10) ([3]; 6700 nM),level (log10) ([3]; 20000 nM),level (log10) ([3]; 60000 nM),level (log10) ([4]; 6700 nM),level (log10) ([4]; 20000 nM),level (log10) ([4]; 60000 nM),level (log10) ([5]; 6700 nM),level (log10) ([5]; 20000 nM),level (log10) ([5]; 60000 nM),level (log10) ([6]; 6700 nM),level (log10) ([6]; 20000 nM),level (log10) ([6]; 60000 nM),level (log10) ([7]; 6700 nM),level (log10) ([7]; 20000 nM)
BE3C:CD54/ICAM-1,-0.0005 ± 0.005,0.0045 ± 0.0064,0.001 ± 0.0028,-0.004 ± 0.017,0.0025 ± 0.0021,0.031 ± 0.04,-0.007 ± 0.0057,-0.0025 ± 0.0035,-0.016,-0.0015 ± 0.013,-0.007 ± 0.0085,-0.007 ± 0.017,0.013 ± 0.0057,0.0185 ± 0.018,-0.003 ± 0.03,0.0215 ± 0.018,0.013 ± 0.0042,-0.02 ± 0.014,0 ± 0.0085,0 ± 0.0042
BE3C:CD87/uPAR,0.0055 ± 0.016,0.0275 ± 0.019,0.0275 ± 0.026,-0.0365 ± 0.025,-0.0635 ± 0.013,-0.012 ± 0.013,0.011 ± 0.034,0.0215 ± 0.0078,0.027 ± 0.0085,0.0145 ± 0.011,-0.0195 ± 0.019,0.002 ± 0.0099,-0.002 ± 0.0085,0.026 ± 0.0085,-0.0195 ± 0.00071,0.0225 ± 0.0035,0.0135 ± 0.011,-0.01 ± 0.031,0.0225 ± 0.013,0.0075 ± 0.0078
BE3C:CXCL8/IL-8,0.019 ± 0.054,0.0175 ± 0.061,0.055 ± 0.11,-0.016 ± 0.0042,-0.026 ± 0.0085,-0.0075 ± 0.04,-0.013 ± 0.071,0.0005 ± 0.011,0.0195 ± 0.011,0.0325 ± 0.028,0.0325 ± 0.016,0.0655 ± 0.042,-0.021 ± 0.027,-0.0325 ± 0.023,-0.0245 ± 0.066,-0.0045 ± 0.022,-0.06 ± 0.0014,-0.134 ± 0.005,-0.006 ± 0.0085,0.038 ± 0.038
BE3C:CXCL9/MIG,0.0065 ± 0.018,0.0005 ± 0.00071,0.004 ± 0.027,-0.007 ± 0.014,-0.007 ± 0.0057,0.005 ± 0.023,0.0065 ± 0.013,0.0045 ± 0.005,0 ± 0.0042,0.0005 ± 0.013,-0.006 ± 0.016,-0.0005 ± 0.00071,0.004 ± 0.0085,0 ± 0.016,-0.006 ± 0.0071,-0.002 ± 0.0085,-0.015 ± 0.0028,-0.03 ± 0.011,0.002 ± 0.0042,0.001 ± 0.0071
BE3C:CXCL10/IP-10,-0.006 ± 0.0028,0.005 ± 0.0014,0.007 ± 0.011,-0.022 ± 0.027,-0.0195 ± 0.026,-0.0295 ± 0.00071,-0.0095 ± 0.013,-0.001 ± 0.0042,0.0115 ± 0.0092,-0.0045 ± 0.0078,-0.001 ± 0.0085,0.0045 ± 0.0035,0.003 ± 0.013,-0.006 ± 0.0014,-0.018 ± 0.0028,-0.0205 ± 0.012,-0.122 ± 0.019,-0.237 ± 0.02,-0.0025 ± 0.0078,-0.0065 ± 0.0021
BE3C:CXCL11/I-TAC,-0.01 ± 0.0071,0.003 ± 0.014,0.012 ± 0.031,-0.0375 ± 0.0092,-0.033 ± 0.023,-0.019 ± 0.011,-0.011 ± 0.0057,0.0115 ± 0.0021,-0.0045 ± 0.0078,0.011 ± 0.018,0.008 ± 0.0085,0.0135 ± 0.0092,-0.006 ± 0.0085,-0.0045 ± 0.026,-0.0165 ± 0.0064,0.0385 ± 0.0021,0.016 ± 0.0071,-0.0915 ± 0.015,-0.0055 ± 0.019,-0.0125 ± 0.0035
BE3C:EGFR,-0.0065 ± 0.00071,-0.0165 ± 0.013,-0.01 ± 0.028,-0.015 ± 0.014,-0.011 ± 0.0085,-0.0015 ± 0.012,-0.016 ± 0.023,-0.009 ± 0.0085,0.005 ± 0.0057,0.016 ± 0.0071,0.0035 ± 0.015,0.009 ± 0.016,-0.019 ± 0.024,-0.01 ± 0.017,-0.0315 ± 0.005,0.002 ± 0.0028,-0.014 ± 0.018,0.004 ± 0.0099,0.001 ± 0.011,-0.01 ± 0.017
BE3C:HLA-DR,-0.009 ± 0.0014,-0.0105 ± 0.0021,0.009 ± 0.033,-0.0175 ± 0.0064,-0.0245 ± 0.011,-0.0355 ± 0.016,-0.022 ± 0.013,-0.0015 ± 0.018,-0.0265 ± 0.0021,-0.0005 ± 0.019,0.007 ± 0.0071,0.021 ± 0.021,0.009,-0.0245 ± 0.0064,-0.039 ± 0.014,-0.0175 ± 0.037,-0.111 ± 0.005,-0.255 ± 0.0014,-0.0045 ± 0.0021,-0.0235 ± 0.012
BE3C:IL-1alpha,0.0045 ± 0.005,-0.0075 ± 0.019,0.032 ± 0.014,0.012 ± 0.02,0.0005 ± 0.0092,0.001 ± 0.023,-0.0215 ± 0.013,-0.001 ± 0.0028,-0.0085 ± 0.005,-0.0045 ± 0.037,0.014 ± 0.0042,0.0245 ± 0.0021,0.002 ± 0.0042,0.0015 ± 0.0064,0.0055 ± 0.029,0.016 ± 0.027,-0.0055 ± 0.0064,-0.043 ± 0.037,0.0025 ± 0.018,0.021 ± 0.0071
BF4T:CCL2/MCP-1,0.002 ± 0.0014,0.002 ± 0.0042,0.018 ± 0.018,0.0005 ± 0.0021,-0.052 ± 0.031,-0.0635 ± 0.0064,0.007 ± 0.031,0.005 ± 0.048,0.0285 ± 0.021,0.031 ± 0.031,0.007 ± 0.054,0.035 ± 0.028,-0.0075 ± 0.0064,-0.017 ± 0.0014,-0.009 ± 0.024,0.037 ± 0.023,-0.019 ± 0.0028,-0.002 ± 0.034,-0.0175 ± 0.00071,0.01 ± 0.021
BF4T:CCL26/Eotaxin-3,-0.0025 ± 0.035,-0.0135 ± 0.015,0.0045 ± 0.0078,-0.089 ± 0.03,-0.124 ± 0.0014,-0.126 ± 0.067,-0.128 ± 0.03,-0.0995 ± 0.06,-0.137 ± 0.03,0.0195 ± 0.06,0.0005 ± 0.0035,0.0065 ± 0.0021,0.004 ± 0.0057,-0.009 ± 0.033,-0.019 ± 0.018,-0.0635 ± 0.05,-0.179 ± 0.05,-0.203 ± 0.0099,0.0285 ± 0.011,-0.0075 ± 0.0092
BF4T:CD54/ICAM-1,-0.0145 ± 0.0064,-0.0045 ± 0.023,-0.0115 ± 0.00071,-0.0195 ± 0.005,-0.0205 ± 0.005,-0.0075 ± 0.013,-0.0155 ± 0.012,-0.0265 ± 0.016,-0.0075 ± 0.0021,-0.005 ± 0.024,-0.013 ± 0.027,-0.0005 ± 0.0035,-0.0275 ± 0.0092,-0.015 ± 0.013,-0.029 ± 0.017,-0.006 ± 0.0014,-0.0175 ± 0.00071,-0.0325 ± 0.013,-0.006 ± 0.0071,-0.008 ± 0.0099
BF4T:CD90,-0.0225 ± 0.022,-0.006 ± 0.0071,0.0065 ± 0.005,-0.0205 ± 0.011,-0.022 ± 0.0042,-0.0235 ± 0.019,-0.0065 ± 0.011,-0.015 ± 0.011,-0.007 ± 0.024,-0.009 ± 0.011,-0.006 ± 0.0099,0 ± 0.0028,-0.011 ± 0.023,-0.005 ± 0.028,-0.014 ± 0.018,-0.008 ± 0.0028,-0.018 ± 0.0014,-0.0355 ± 0.0092,0.0085 ± 0.018,0 ± 0.021
